The values below come from US20040110771A1, “7-(r)-aminotriazolopyrimidines, the production thereof and use of the same for combatting phytopathogenic fungi” (priority 2000, published 2004).

Each structure is given as a SMILES string.

Type in all cases: in vivo
Test [1] concerns Blumeria graminis forma specialis tritici. Description: Activity against mildew of wheat caused by Blumeria graminis forma specialis tritici. The conditions noted are these: wheat seedlings "Kanzler", dusted with spores 24 h after spraying, 7 days. The method, then:
(§1) The active compounds were prepared separately or jointly as a 10% strength emulsion in a mixture of 70% by weight of cyclohexanone, 20% by weight of Nekanil® LN (Lutensol® AP6, wetting agent having emulsifying and dispersing action based on ethoxylated alkylphenols) and 10% by weight of Wettol® EM (nonionic emulsifier based on ethoxylated castor oil) and diluted with water to the desired concentration.
Leaves of potted wheat seedlings of the cultivar “Kanzler” were sprayed to runoff point with an aqueous preparation of active compound which had been prepared from a stock solution made of 10% of active compound, 85% of cyclohexanone and 5% of emulsifier and were dusted 24 hours after the spray coating had dried on with spores of mildew of wheat (Blumeria graminis forma specialis tritici). The test plants were then placed in a greenhouse at 20-24° C. and 60-90% relative atmospheric humidity. After 7 days, the extent of the mildew development was determined visually in % infection of the entire leaf area.

In test [2] the test system is Puccinia recondita. Description: Curative activity against brown rust of wheat caused by Puccinia recondita. The conditions noted are these: curative spray 24 h after inoculation, wheat seedlings "Kanzler", 7 days. The method, then:
as §1
Leaves of potted wheat seedlings of the cultivar “Kanzler” were dusted with spores of brown rust (Puccinia recondita). The pots were then placed in a chamber with high atmospheric humidity (90 to 95%) at 20-22° C. for 24 hours. During this period, the spores germinated and the germinal tubes penetrated into the leaf tissue. The following day, the infected plants were sprayed to runoff point with an aqueous preparation of active compound which had been prepared from a stock solution made of 10% of active compound, 85% of cyclohexanone and 5% of emulsifier. After the spray coating had dried on, the test plants were cultivated in a greenhouse at 20-22° C. and 65-70% relative atmospheric humidity for 7 days. The extent of the rust fungus development on the leaves was then determined.

Test [3] concerns Pyrenophora teres. Description: Activity against net blotch of barley caused by Pyrenophora teres. As to conditions: barley seedlings "Igri", inoculated 24 h after spraying, 6 days. The protocol: as §1
Leaves of potted barley seedlings of the cultivar “Igri” were sprayed to runoff point with an aqueous preparation of active compound which had been prepared from a stock solution made of 10% of active compound, 85% of cyclohexanone and 5% of emulsifier and were inoculated 24 hours after the spray coating had dried on with an aqueous spore suspension of Pyrenophora teres, the net blotch pathogen. The test plants were then placed in a greenhouse at 20-24° C. and 95-100% relative atmospheric humidity. After 6 days, the extent of the development of the disease was determined visually in % infection of the entire leaf area.

With `Cc1cc(F)ccc1-c1c(Cl)nc2ncnn2c1NC(C)C(C)C` (stereo not shown) [I.-23], the “% infection of the leaves after application of an aqueous preparation comprising . . . ppm of active compound” value (“% infection of the leaves” below) is on record as 15% in test [1] (16 ppm); 5% in test [1] (63 ppm); 3% in test [1] (250 ppm); 3% in test [2] (16 ppm); 0% in test [2] (63 ppm); 0% in test [2] (250 ppm). The “% infection of the leaves” value in test [3] (16 ppm) was 0%.
Regarding `CC[C@H](C)Nc1c(-c2c(C)cccc2F)c(Cl)nc2ncnn12` [comparison (S)-amine of I.-10], the “% infection of the leaves” value in test [1] (63 ppm), in test [1] (250 ppm), in test [2] (16 ppm), in test [2] (63 ppm), in test [2] (250 ppm) and in test [3] (63 ppm) was 100% in each case. For the same compound, the “% infection of the leaves” value in test [3] (250 ppm) was determined as 40%.
With `Cc1cccc(F)c1-c1c(Cl)nc2ncnn2c1NC(C)C(C)C` [comparison (S)-amine of I.-11a], the “% infection of the leaves” value in test [1] (16 ppm) is reported as 80%; in test [1] (63 ppm) it was 60%; in test [1] (250 ppm) it was 60%; in test [2] (16 ppm) it was 100%; in test [2] (63 ppm), 60%; in test [2] (250 ppm) it was 30%. The “% infection of the leaves” value in test [3] (16 ppm), in test [3] (63 ppm) and in test [3] (250 ppm) was 100% throughout.
As for `Cc1cccc(F)c1-c1c(Cl)nc2ncnn2c1NC(C)C(C)C` [comparison (S)-amine of I.-11b], the “% infection of the leaves” value in test [1] (63 ppm) worked out at 60%; in test [1] (250 ppm), 60%; in test [2] (63 ppm) it was 100%; in test [2] (250 ppm), 100%; in test [3] (63 ppm), 100%; in test [3] (250 ppm), 100%.
Take `CC[C@H](C)Nc1c(-c2c(F)cc(F)cc2F)c(Cl)nc2ncnn12` [comparison (S)-amine of I.-13]: the “% infection of the leaves” value worked out at 100% in test [1] (16 ppm); 60% in test [1] (63 ppm); 60% in test [2] (16 ppm); 3% in test [2] (63 ppm); 60% in test [3] (16 ppm).
